The text below walks through data of patent publication US9452980B2, “Substituted benzamides” (Hoffmann-La Roche Inc., priority 2009, dated 2016).

Each structure is given as a SMILES string. Structures can show the parent of a compound that is named as a salt. Where two headings read alike, the source gives them in different places.

A word on the Ki: it is the equilibrium dissociation constant of an inhibitor or competing ligand from its target.

The target of one assay is mouse TAAR1 (Mus musculus (Mouse), UniProt Q923Y8). Description: Radioligand binding assay on mouse TAAR1. The settings on record: read-out: Ki (μM) mouse. The procedure, abridged:
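Membranes were from HEK293 cells stably expressing mouse TAAR1. Compounds from 10 pM to 10 μM, in duplicate, competed with [3H]-(S)-4-[(ethyl-phenyl-amino)-methyl]-4,5-dihydro-oxazol-2-ylamine for 1 h at 4 °C. Nonspecific binding was defined with 10 μM unlabelled ligand, and bound radioactivity was read by filtration and scintillation.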

The next assay addresses rat TAAR1 (Rattus norvegicus (Rat), UniProt Q923Y9). The assay is described as follows: Radioligand binding assay on rat TAAR1. The following applies: read-out: Ki (μM) rat. The procedure, abridged:
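Membranes from HEK293 cells stably expressing rat TAAR1, with Kd checked per batch by saturation. Competition with ³H-(S)-4-[(ethyl-phenyl-amino)-methyl]-4,5-dihydro-oxazol-2-ylamine, compounds 10 pM–10 μM in duplicate, 1 hr at 4 °C. Filtration then scintillation counting; nonspecific binding defined with 10 μM unlabeled ligand.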

Where [1] appears, read: mouse TAAR1, HEK-293 membranes, first value of cell mouse/rat.
Where [2] appears, read: rat TAAR1, HEK-293 membranes, second value of cell mouse/rat.

Sequence of mouse TAAR1 (Q923Y8 whole entry): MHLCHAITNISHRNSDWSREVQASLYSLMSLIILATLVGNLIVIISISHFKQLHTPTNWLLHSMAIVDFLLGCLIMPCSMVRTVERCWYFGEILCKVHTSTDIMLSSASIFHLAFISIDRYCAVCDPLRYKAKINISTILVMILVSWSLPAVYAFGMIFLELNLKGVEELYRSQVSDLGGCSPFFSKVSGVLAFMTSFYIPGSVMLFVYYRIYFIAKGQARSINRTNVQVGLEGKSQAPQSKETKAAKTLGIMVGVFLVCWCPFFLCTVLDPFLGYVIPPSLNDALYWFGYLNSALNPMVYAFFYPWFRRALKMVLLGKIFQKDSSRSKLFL
Sequence of rat TAAR1 (Q923Y9 whole entry): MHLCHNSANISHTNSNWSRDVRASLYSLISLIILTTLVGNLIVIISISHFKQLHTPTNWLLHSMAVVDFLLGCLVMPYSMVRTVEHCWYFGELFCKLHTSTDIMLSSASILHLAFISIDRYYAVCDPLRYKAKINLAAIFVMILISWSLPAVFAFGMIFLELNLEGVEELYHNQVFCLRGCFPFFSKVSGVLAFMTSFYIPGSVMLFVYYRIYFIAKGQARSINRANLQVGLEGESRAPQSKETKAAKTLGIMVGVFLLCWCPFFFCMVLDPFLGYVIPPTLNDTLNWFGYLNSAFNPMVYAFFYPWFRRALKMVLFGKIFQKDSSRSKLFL

For the compound `O=C(Nc1ccc(C2CCNC2)cc1)c1ccc2ccccc2n1` (racemic) [Example 84, (RS)-Quinoline-2-carboxylic acid (4-pyrrolidin-3-yl-phenyl)-amide hydrochloride], the inhibition constant Ki was 0.008 µM on mouse TAAR1 (setting [1]) and 0.0381 µM at rat TAAR1 (setting [2]).

Consider `O=C(Nc1ccc(C2CCNC2)cc1)c1ncccc1F` (racemic) [Example 82, (RS)-3-Fluoro-pyridine-2-carboxylic acid (4-pyrrolidin-3-yl-phenyl)-amide hydrochloride], for which the results for the Ki at mouse TAAR1 (setting [1]) and on rat TAAR1 (setting [2]) were 0.713 µM and 1.77 µM, respectively.

On to `CCSc1cccc(C(=O)Nc2ccc([C@@H]3CCCNC3)cc2)c1` [Example 246, (S)-3-(Ethylthio)-N-(4-(piperidin-3-yl)phenyl)benzamide], for which the Ki worked out at 0.0151 µM on mouse TAAR1 (setting [1]) and 0.0012 µM at rat TAAR1 (setting [2]).

Consider `O=C(Nc1ccc(C2CCCNC2)cc1)c1ccc(Cl)cc1F` (racemic) [Example 100, (RS)-4-Chloro-2-fluoro-N-(4-piperidin-3-yl-phenyl)-benzamide hydrochloride], for which the Ki stood at 0.0036 µM on mouse TAAR1 (setting [1]) and 0.0308 µM on rat TAAR1 (setting [2]).

Consider `O=C(Nc1ccc(C2CNCCO2)cc1)c1ccccc1` (racemic) [Example 188, (RS)—N-(4-(Morpholin-2-yl)phenyl)benzamide hydrochloride], for which the Ki on mouse TAAR1 (setting [1]) was found to be 0.138 µM; at rat TAAR1, 0.0055 µM.

Turning to `O=C(Nc1ccc(C2CCNC2)cc1)OCCCc1ccc(Cl)cc1` (racemic) [Example 128, (RS)-(4-Pyrrolidin-3-yl-phenyl)-carbamic acid 3-(4-chloro-phenyl)-propyl ester], the Ki at mouse TAAR1 (setting [1]) and at rat TAAR1 (setting [2]) was 0.0003 µM in each case.

In the case of `Cc1ccc(C(=O)Nc2ccc([C@@H]3CCCNC3)cc2)cn1` [Example 243, (S)-6-Methyl-N-(4-(piperidin-3-yl)phenyl)nicotinamide hydrochloride], the results for the Ki on mouse TAAR1 (setting [1]) and on rat TAAR1 (setting [2]) were 2.12 µM and 0.0062 µM, respectively.

As for `O=C(Nc1ccc(C2CNCCO2)cc1)Nc1ccc(C(F)(F)F)cc1` (racemic) [Example 291, (RS)-1-(4-(Morpholin-2-yl)phenyl)-3-(4-(trifluoromethyl)phenyl)urea hydrochloride], the Ki on mouse TAAR1 (setting [1]) was found to be 0.0012 µM; on rat TAAR1 it was 0.0017 µM.

As to `CCSc1ccc(C(=O)Nc2ccc([C@@H]3CCCNC3)cc2)cc1` [Example 237, (S)-4-(Ethylthio)-N-(4-(piperidin-3-yl)phenyl)benzamide hydrochloride], the figures for the Ki on mouse TAAR1 (setting [1]) and at rat TAAR1 (setting [2]) were 0.0677 µM and 0.0008 µM, respectively.

As for `O=C(Nc1ccc(C2CNCCO2)cc1)c1coc(-c2ccccc2)n1` (racemic) [Example 249, (RS)—N-(4-(Morpholin-2-yl)phenyl)-2-phenyloxazole-4-carboxamide hydrochloride], the Ki on mouse TAAR1 (setting [1]) stood at 0.0025 µM; at rat TAAR1 (setting [2]), 0.0024 µM.

With `O=C(Nc1ccc(C2CCCNC2)cc1)c1ccc(OCC(F)(F)F)nc1` (racemic) [Example 178, (RS)—N-(4-(Piperidin-3-yl)phenyl)-6-(2,2,2-trifluoroethoxy)nicotinamide hydrochloride], the Ki at mouse TAAR1 (setting [1]) is 0.0032 µM; at rat TAAR1 (setting [2]) it was 0.002 µM.

For the compound `O=C(Nc1ccc(C2CCNC2)cc1)OCCc1ccc(C(F)(F)F)cc1` (racemic) [Example 122, (RS)-(4-Pyrrolidin-3-yl-phenyl)-carbamic acid 2-(4-trifluoromethyl-phenyl)-ethyl ester], the Ki on mouse TAAR1 (setting [1]) was determined as 0.0003 µM; at rat TAAR1 (setting [2]) it was 0.0011 µM.

For `O=C(Nc1ccc(C2CCNC2)cc1)c1nc2ccccc2[nH]1` (racemic) [Example 76, (RS)-1H-Benzoimidazole-2-carboxylic acid (4-pyrrolidin-3-yl-phenyl)-amide hydrochloride], the results for the Ki at mouse TAAR1 (setting [1]) and on rat TAAR1 (setting [2]) were 0.136 µM and 0.296 µM, respectively.

Turning to `O=C(Nc1ccc(CCC2CCNC2)cc1)c1ccc(Cl)cc1` (racemic) [Example 109, (RS)-4-Chloro-N-[4-(2-pyrrolidin-3-yl-ethyl)-phenyl]-benzamide hydrochloride], the Ki amounted to 0.0017 µM on mouse TAAR1 (setting [1]) and 0.0176 µM on rat TAAR1 (setting [2]).

As to `O=C(Nc1ccc(C2CCNC2)cc1)c1ccc(C(F)(F)F)cc1` (racemic) [Example 18, (RS)—N-(4-Pyrrolidin-3-yl-phenyl)-4-trifluoromethyl-benzamide hydrochloride], the Ki on mouse TAAR1 (setting [1]) was 0.0011 µM; at rat TAAR1 (setting [2]), 0.0036 µM.

Turning to `O=C(Nc1ccc(C2CCNC2)cc1)OCCc1cccc(C(F)(F)F)c1` (racemic) [Example 123, (RS)-(4-Pyrrolidin-3-yl-phenyl)-carbamic acid 2-(3-trifluoromethyl-phenyl)-ethyl ester], the inhibition constant (Ki) at mouse TAAR1 (setting [1]) turned out to be 0.0014 µM; on rat TAAR1 (setting [2]), 0.0022 µM.

As to `O=C(Nc1ccc(C2CNCCO2)cc1)c1cnc(-c2ccccc2)s1` (racemic) [Example 231, (RS)—N-(4-(Morpholin-2-yl)phenyl)-2-phenylthiazole-5-carboxamide hydrochloride], the Ki stood at 0.0043 µM on mouse TAAR1 and 0.0014 µM on rat TAAR1 (setting [2]).

Turning to `CCCc1ccc(C(=O)Nc2ccc(C3CCCNC3)cc2)cc1` (racemic) [Example 137, (RS)—N-(4-Piperidin-3-yl-phenyl)-4-propyl-benzamide hydrochloride], the figures for the Ki on mouse TAAR1 (setting [1]) and at rat TAAR1 (setting [2]) were 0.0062 µM and 0.0015 µM, respectively.

Take `O=C(Nc1ccc(C2CCNC2)cc1)c1ncc(F)cc1F` (racemic) [Example 75, (RS)-3,5-Difluoro-pyridine-2-carboxylic acid (4-pyrrolidin-3-yl-phenyl)-amide hydrochloride]: the Ki on mouse TAAR1 (setting [1]) came to 0.0255 µM; on rat TAAR1 (setting [2]) it was 1.48 µM.

In the case of `O=C(Nc1ccc([C@@H]2CCCNC2)cc1)c1cc(Cl)nc(Cl)c1` [Example 281, (S)-2,6-Dichloro-N-(4-(piperidin-3-yl)phenyl)isonicotinamide hydrochloride], the Ki on mouse TAAR1 (setting [1]) came to 0.0128 µM; at rat TAAR1 (setting [2]), 0.0014 µM.

Turning to `COc1cc(C(=O)Nc2ccc([C@@H]3CCCNC3)cc2)ccc1Cl` [Example 201, (S)-4-Chloro-3-methoxy-N-(4-(piperidin-3-yl)phenyl)benzamide hydrochloride], the results for the Ki at mouse TAAR1 (setting [1]) and at rat TAAR1 (setting [2]) were 0.113 µM and 0.0022 µM, respectively.

In the case of `O=C(Nc1ccc(C2CNCCO2)cc1)c1ccc(N2CCCC2)nc1` (racemic) [Example 279, (RS)—N-(4-(Morpholin-2-yl)phenyl)-6-(pyrrolidin-1-yl)nicotinamide hydrochloride], the values for the Ki at mouse TAAR1 (setting [1]) and at rat TAAR1 (setting [2]) were 0.146 µM and 0.0044 µM, respectively.

As for `CCOc1ccc(C(=O)Nc2ccc(C3CNCCO3)cc2)cc1` (racemic) [Example 197, (RS)-4-Ethoxy-N-(4-(morpholin-2-yl)phenyl)benzamide hydrochloride], the Ki on mouse TAAR1 (setting [1]) was determined as 0.0177 µM; at rat TAAR1, 0.0016 µM.

For `O=C(Nc1ccc([C@H]2CCCNC2)cc1)c1ccc(Cl)nc1` [Example 161, (R)-6-Chloro-N-(4-(piperidin-3-yl)phenyl)nicotinamide hydrochloride], the figures for the Ki on mouse TAAR1 and on rat TAAR1 (setting [2]) were 0.0403 µM and 0.0101 µM, respectively.

`O=C(NCc1ccc([C@@H]2CNCCO2)cc1)c1ccc(Cl)cc1` [Example 314, (R)-4-Chloro-N-(4-(morpholin-2-yl)benzyl)benzamide hydrochloride]: the values for the Ki on mouse TAAR1 (setting [1]) and at rat TAAR1 (setting [2]) were 1.89 µM and 0.0062 µM, respectively.

In the case of `Cc1ccc(C(=O)Nc2ccc([C@H]3CCCNC3)cc2)cn1` [Example 264, (R)-6-Methyl-N-(4-(piperidin-3-yl)phenyl)nicotinamide hydrochloride], the figures for the Ki on mouse TAAR1 (setting [1]) and on rat TAAR1 (setting [2]) were 0.297 µM and 0.0143 µM, respectively.

On to `COc1ccc(C(=O)Nc2ccc(C3CCNC3)cc2)c(OC)n1` (racemic) [Example 95, (RS)-2,6-Dimethoxy-N-(4-pyrrolidin-3-yl-phenyl)-nicotinamide], for which the Ki came to 0.0385 µM on mouse TAAR1 (setting [1]) and 0.322 µM at rat TAAR1 (setting [2]).

On to `CCOc1cc(C(=O)Nc2ccc(C3CNCCO3)cc2)ccn1` (racemic) [Example 300, (RS)-2-Ethoxy-N-(4-(morpholin-2-yl)phenyl)isonicotinamide hydrochloride], for which the Ki worked out at 0.0726 µM at mouse TAAR1 (setting [1]) and 0.002 µM on rat TAAR1 (setting [2]).

In the case of `O=C(Nc1ccc(Cl)cc1)Nc1ccc(CCC2CCCNC2)cc1` (racemic) [Example 119, (RS)-1-(4-Chloro-phenyl)-3-[4-(2-piperidin-3-yl-ethyl)-phenyl]-urea hydrochloride], the Ki at mouse TAAR1 (setting [1]) was found to be 0.0365 µM; on rat TAAR1 (setting [2]), 0.0018 µM.

As to `O=C(Nc1ccc(C2CNCCO2)cc1)c1ccc(N2CCOCC2)nc1` (racemic) [Example 241, (RS)—N-(4-(Morpholin-2-yl)phenyl)-6-morpholinonicotinamide hydrochloride], the results for the Ki at mouse TAAR1 (setting [1]) and on rat TAAR1 (setting [2]) were 1.55 µM and 0.116 µM, respectively.

Consider `C[C@@H]1CNC[C@H](c2ccc(NC(=O)c3ccc(Cl)nc3)cc2)O1` [Example 310, 6-Chloro-N-(4-((2S,6R)-6-methylmorpholin-2-yl)phenyl)nicotinamide hydrochloride], for which the Ki stood at 0.0476 µM at mouse TAAR1 and 0.0108 µM at rat TAAR1 (setting [2]).

Take `O=C(Nc1ccc(C2CNCCO2)cc1)c1cc(Cl)nc(Cl)c1` (racemic) [Example 221, (RS)-2,6-Dichloro-N-(4-(morpholin-2-yl)phenyl)isonicotinamide hydrochloride]: the Ki at mouse TAAR1 amounted to 0.005 µM; at rat TAAR1, 0.0037 µM.

As for `CC(C(=O)Nc1ccc(C2CCCNC2)cc1)c1cccc(Cl)c1` (racemic) [Example 111, (RS)-2-(3-Chloro-phenyl)-N—((RS)-4-piperidin-3-yl-phenyl)-propionamide], the Ki at mouse TAAR1 (setting [1]) came to 0.0349 µM; at rat TAAR1 (setting [2]), 0.0382 µM.

Turning to `O=C(Nc1ccc(C2CCCNC2)cc1)c1ccc(OCC(F)(F)F)cn1` (racemic) [Example 191, (RS)—N-(4-(Piperidin-3-yl)phenyl)-5-(2,2,2-trifluoroethoxy)picolinamide hydrochloride], the values for the Ki at mouse TAAR1 (setting [1]) and at rat TAAR1 (setting [2]) were 0.011 µM and 0.0074 µM, respectively.
